Data as given in paper PMC11724075, “Small-molecule-induced ERBB4 activation to treat heart failure” (Nature Communications, 2025).
Where “and” joins values, the source holds several entries; their conditions need not be identical. Identical values can stand only once.

Assays:
[1] = system: mouse model of AngII-induced myocardial fibrosis; experiment: AngII-induced myocardial fibrosis mouse model, 4 weeks, echocardiography, wild-type mice; type: in vivo
Protocol: Four weeks after implantation, cardiac ultrasound was performed, mice were euthanized, and hearts were collected. A similar set-up was used for the 1-week study (Alzet, model 1007D) in male mice (n = 9-10 mice in every group).
Echocardiography was performed using the Vevo F2-LAZRX (FUJIFILM VisualSonics) and UHF57x probe. Mice were anesthetized with 1.5% isoflurane (Alvira, BE-V512222). Parasternal long-axis B-mode images and M-mode images were obtained and analyzed using VevoLAB software (FUJIFILM VisualSonics, Version 5.7.1). For the AngII experiments, measurements were obtained through analysis of the short-axis M-mode. For the MI experiments, measurements were obtained through analysis of the parasternal long-axis B-mode, of which the area and end-volume of the left ventricular cavity in diastole and systole were determined by tracing the endocardial border. Acquisitions, measurements and analyses were performed blinded.
Supplementary Table 2. Echocardiographic parameters. Echocardiographic parameters obtained through the analysis of the M-mode short-axis views. (a) Male and (b) female wild-type mice treated […]
mice in EF-1 group). (c) Male wild-type mice treated with AngII and NA-1 (n=5 male mice in Ctrl and AngII/Veh group, n=4 male mice in AngII/NA -1 group). (d) Comparison between wild-type and Erbb4-null mice (n=10 male and female wild -type mice and n=6 male and female Erbb4-null mice). (e) Male […]
Echocardiographic parameters obtained through left ventricular trace analysis of the parasternal long-axis obtained in B-mode in female wild-type mice that underwent a sham or MI operation: mice with […]
in MI/EF-1 group). (g) Echocardiographic parameters obtained through left ventricular trace analysis of the parasternal long-axis obtained in B-mode in male wild-type mice that underwent a sham or MI […]
male mice in MI/Veh group for T2 and T4). Echocardiographic parameters were measured weekly (indicated by ‘T’). All data are presented as mean (value of individual mice) ± SD, two-tailed unpaired […]
1 groups. Source data are provided as a Source Data file. AngII, angiotensin II; ANOVA, analysis of variance; Ctrl, control; DOX, doxorubicin; EF, ejection fraction; ERBB4, erythroblastic leukemia viral oncogene homolog 4; FS, fractional shortening; IVSd, interventricular septum thickness in diastole; IVSs, interventricular septum thickness in systole; LVIDd, left ventricular internal diameter in diastole; LVIDs, left ventricular internal diameter in systole; LVPWd, left ventricular posterior wall thickness in diastole; LVPWs, left ventricular posterior wall thickness in systole; MI, myocardial infarction; NA, non-activating pharmacophore-containing compound; SD, standard variation; Veh, vehicle.

[2] = system: ERK1/2 phosphorylation (pERK1/2/ERK1/2); experiment: Western blot pERK1/2/ERK1/2 in iAMs; type: cell-based, rat; conditions: for phosphorylation of ERK1/2 in iAMs (in words): NRG1 10 nM or EF-1 32 µM; for pErk/Erk, relative to vehicle of the same time point: iAMs, single replicates
Protocol: Hearts of the aforementioned transgenic mice were removed immediately after the animals had been killed. Cells and heart tissue were collected in RIPA lysis buffer (Thermo Fisher Scientific, 89900) supplemented with protease inhibitors (Merck, 11836153001) and phosphatase inhibitors (Merck, 4906845001) and the lysates were centrifuged at 14,000 × g for 10 min. The supernatants were collected, supplemented with sample buffer, and incubated at 95 °C for 5 min. Protein quantification was done with Pierce^TM BCA Protein Assay Kits (Thermo Fisher, 23227) according to the manufacturer’s instructions. Equal protein amounts of clarified lysates (20 µg) were subsequently separated by sodium dodecyl sulfate (SDS) polyacrylamide gel electrophoresis (165 V, 400 mA, 60 min) and transferred onto polyvinylidene fluoride membranes by electroblotting (100 V, 400 mA, 90 min). Next, the membranes were incubated for 1 h with Li-Cor blocking buffer (Li-Cor, 927-60001) at RT in Tris-buffered saline (TBS), supplemented with 0.1% Tween (BIO-RAD, 1706531). Next, primary antibodies were added (see below and Table 1a) in Li-Cor blocking buffer supplemented with 0.1% Tween, and the membranes were incubated overnight at 4 °C on a shaker. Following washing with TBS-0.1% Tween, the membranes were incubated for 1 h at RT with corresponding IRDye-conjugated secondary antibodies (See below and Table 1b) in Li-Cor blocking buffer supplemented with […] and 0.1% Tween. The membrane was visualized with the Odessey imaging system.

[3] = Male wild-type mice, AngII/NA-1
[4] = male wild-type mice, AngII + compound 2 mg/kg/day, 4 weeks, mean ± SD
[5] = Female wild-type mice, AngII/EF-1
[6] = Male wild-type mice, AngII/EF-1
[7] = Male wild-type mice, EF-1 without AngII
[8] = female wild-type mice, AngII/EF-1, 4 weeks, mean ± SD
[9] = male wild-type mice, EF-1 group without AngII, 4 weeks, mean ± SD

## Cc1sc2nc(SC(C)C(=O)NCc3ccc4c(c3)OCO4)n(-c3ccccc3)c(=O)c2c1C (stereo not shown) [NA-1]
[1]; [3]
  FS: 18.1 ± 5.1%
  IVSd: 1.0 ± 0.2 mm
  IVSs: 1.4 ± 0.2 mm
  LVIDd: 4.3 ± 0.7 mm
  LVIDs: 3.5 ± 0.7 mm
  LVPWd: 0.9 ± 0.1 mm
  LVPWs: 1.1 ± 0.3 mm
[1]; [4]
  FS: 18.1 ± 5.1%
  IVSd: 1.0 ± 0.2 mm
  IVSs: 1.4 ± 0.2 mm
  LVIDd: 4.3 ± 0.7 mm
  LVIDs: 3.5 ± 0.7 mm
  LVPWd: 0.9 ± 0.1 mm
  LVPWs: 1.1 ± 0.3 mm

## neuregulin-1 [NRG1]
[2]
  phosphorylation of ERK1/2 in iAMs (in words): time-dependent phosphorylation of ERK1/2
[2]; NRG1 10 nM, 0 minutes
  pErk/Erk, relative to vehicle of the same time point: 0.7394 and 1.087 and 0.6444
[2]; NRG1 10 nM, 15 minutes
  pErk/Erk, relative to vehicle of the same time point: 2.343 and 1.9112 and 1.767
[2]; NRG1 10 nM, 60 minutes
  pErk/Erk, relative to vehicle of the same time point: 3.329 and 2.139 and 1.769
[2]; NRG1 10 nM, 120 minutes
  pErk/Erk, relative to vehicle of the same time point: 1.461 and 2.784 and 4.448
[2]; NRG1 10 nM, 240 minutes
  pErk/Erk, relative to vehicle of the same time point: 3.3773 and 3.181

## O=C(NC1CC1)C(Sc1nc2ccccc2c(=O)n1C1CCCC1)c1ccccc1 (stereo not shown) [EF-1]
[2]; EF-1
  time of peak levels of ERK1/2 phosphorylation: 15 min
[2]; EF-1 32 µM, 0 minutes
  pErk/Erk, relative to vehicle of the same time point: 1.078 and 1.057 and 1.137 and 0.8985
[2]; EF-1 32 µM, 15 minutes
  pErk/Erk, relative to vehicle of the same time point: 1.66 and 1.416 and 1.274 and 1.578
[2]; EF-1 32 µM, 60 minutes
  pErk/Erk, relative to vehicle of the same time point: 1.162 and 1.018 and 1.18 and 0.9894
[2]; EF-1 32 µM, 120 minutes
  pErk/Erk, relative to vehicle of the same time point: 0.9869 and 1.003 and 0.9414 and 0.8187
[2]; EF-1 32 µM, 240 minutes
  pErk/Erk, relative to vehicle of the same time point: 0.9968 and 1.428 and 1.0991 and 0.9249
[2]
  phosphorylation of ERK1/2 in iAMs (in words): transient phosphorylation of ERK1/2
[1]; AngII model, both sexes
  effect on cardiac dimensions on ultrasound (in words): did not significantly alter cardiac dimensions
[1]; [5]
  FS: 11.5 ± 5.5%
  IVSd: 0.53 ± 0.07 mm
  IVSs: 0.7 ± 0.1 mm
  LVIDd: 4.2 ± 0.3 mm
  LVIDs: 3.7 ± 0.4 mm
  LVPWd: 0.5 ± 0.1 mm
  LVPWs: 0.6 ± 0.1 mm
[1]; [6]
  FS: 16.6 ± 3.6%
  IVSd: 0.8 ± 0.1 mm
  IVSs: 1.1 ± 0.2 mm
  LVIDd: 4.4 ± 0.3 mm
  LVIDs: 3.7 ± 0.4 mm
  LVPWd: 0.8 ± 0.2 mm
  LVPWs: 0.9 ± 0.2 mm
[1]; [7]
  FS: 18.5 ± 5.1%
  IVSd: 0.9 ± 0.1 mm
  IVSs: 1.2 ± 0.1 mm
  LVIDd: 4.2 ± 0.3 mm
  LVIDs: 3.4 ± 0.3 mm
  LVPWd: 0.75 ± 0.03 mm
  LVPWs: 0.9 ± 0.1 mm
[1]; [8]
  FS: 11.5 ± 5.5%
  IVSd: 0.53 ± 0.07 mm
  IVSs: 0.7 ± 0.1 mm
  LVIDd: 4.2 ± 0.3 mm
  LVIDs: 3.7 ± 0.4 mm
  LVPWd: 0.5 ± 0.1 mm
  LVPWs: 0.6 ± 0.1 mm
[1]; [4]
  FS: 16.6 ± 3.6%
  IVSd: 0.8 ± 0.1 mm
  IVSs: 1.1 ± 0.2 mm
  LVIDd: 4.4 ± 0.3 mm
  LVIDs: 3.7 ± 0.4 mm
  LVPWd: 0.8 ± 0.2 mm
  LVPWs: 0.9 ± 0.2 mm
[1]; [9]
  FS: 18.5 ± 5.1%
  IVSd: 0.9 ± 0.1 mm
  IVSs: 1.2 ± 0.1 mm
  LVIDd: 4.2 ± 0.3 mm
  LVIDs: 3.4 ± 0.3 mm
  LVPWd: 0.75 ± 0.03 mm
  LVPWs: 0.9 ± 0.1 mm
